Experimental data taken from PMC7904550, “Application of grouping and read-across for the evaluation of parabens of different chain lengths with a particular focus on endocrine properties” (Archives of Toxicology, 2021).
Where two headings read alike, the source gives them in different places. Marks after values point to notes of the source that are not given here.

Tests used:
[1] = test system: Wistar rats; test: Extended one-generation reproductive toxicity study (OECD TG 443); type: in vivo, rat; conditions: for NOAEL, EOGRTS: developmental and reproductive toxicity: OECD 443 v 2018, oral gavage
Text: (§1) Healthy and specific pathogen-free male and female (non-pregnant and nulliparous) Wistar Crl: WI(Han) rats were obtained from Charles River Laboratories (Germany). […] Upon arrival at BSL BIOSERVICE, the animals underwent an acclimatisation period of at least 5 days, and they were approximately 15–16 weeks old at the onset of the treatment period.

[2] = test system: oestrogen receptors; design: method as in Byford et al. 2002; conditions: ref Byford et al. 2002; cited from earlier work
[3] = test system: rats; test: Genetic toxicity in vivo (rats); design: species or system rat; conditions: in vivo OECD TG 478 overriding in vitro OECD TG 473
[4] = test system: Wistar rats; conditions: ref Food and Drug Research Laboratories 1972, cited from earlier work; for NOAEL, developmental toxicity: similar to OECD 414, conducted 1972, highest dose tested, GD 6–15
[5] = test system: mammalian cells; conditions: OECD 473 or 487; ref ECHA dissemination portal; cited from earlier work
[6] = test system: Wistar rats; test: Reproductive toxicity screening combined with 28-day repeated dose toxicity study (OECD TG 422); type: in vivo, rat; conditions: for NOAEL, reproductive toxicity: OECD 422 v 2016, oral gavage
Text: as §1

[7] = Acid dissociation constant (pKa); type: physicochemical; conditions: OECD TG 112; read-out: pKa
Text: Generally, these parabens have very similar physico-chemical properties.

COC(=O)c1ccc(O)cc1 [Methyl paraben, Methyl 4-hydroxybenzoate]
Developmental immunotoxicity (DIT) ([1]; DIT cohort): did not exhibit | Developmental neurotoxicity (DNT) ([1]; DNT cohort): did not exhibit DNT | NOAEL, EOGRTS: developmental and reproductive toxicity [1]: NOAEL: 1000 (OECD 443; v 2018) mg/kg body weight/day | NOAEL, EOGRTS: developmental and reproductive toxicity ([1]; listed as methyl paraben): 1000 mg/kg body weight/day | Accessory sex organs HP ([1]; P0, F1, (F2)): NAE / NAE | Adrenals HP ([1]; P0, F1, (F2)): NAE / NAE | Adrenals weight ([1]; P0, F1, (F2)): NAE / NAE | Age at balano-preputial separation ([1]; P0, F1, (F2)): NAE / NAE | Age at vaginal opening ([1]; P0, F1, (F2)): NAE / NAE | Anogenital distance ([1]; P0, F1, (F2)): NAE / NAE | Auditory startle ([1]; P0, F1, (F2)): NAE / NAE | Brain HP ([1]; P0, F1, (F2)): NAE / NAE | Brain morphometric evaluation ([1]; P0, F1, (F2)): NAE / NAE | Brain weight ([1]; P0, F1, (F2)): NAE / NAE | Cervix HP ([1]; P0, F1, (F2)): NAE / NAE | Coagulating gland HP ([1]; P0, F1, (F2)): NAE / NAE | Coagulating gland weight ([1]; P0, F1, (F2)): NAE / NAE | Colloid area (thyroid HP) ([1]; P0, F1, (F2)): NAE / NAE | Dystocia ([1]; P0, F1, (F2)): NAE / NAE | Epididymis HP ([1]; P0, F1, (F2)): NAE / NAE | Epididymis weight ([1]; P0, F1, (F2)): NAE / NAE | Fertility ([1]; P0, F1, (F2)): NAE / NAE | Foetal development ([1]; P0, F1, (F2)): NAE / NAE | Functional observation battery ([1]; P0, F1, (F2)): NAE [h] / NAE | Gestation length ([1]; P0, F1, (F2)): NAE / NAE | Litter size ([1]; P0, F1, (F2)): NAE / NAE | Litter viability ([1]; P0, F1, (F2)): NAE / NAE | Liver weight ([1]; P0, F1, (F2)): NAE / NAE | Mammary gland HP; females ([1]; P0, F1, (F2)): NAE / NAE | Mammary gland HP; males ([1]; P0, F1, (F2)): NAE / NAE | Motor activity ([1]; P0, F1, (F2)): NAE / NAE | Nipple development ([1]; P0, F1, (F2)): NAE / NAE | No. of implantations, corpora lutea ([1]; P0, F1, (F2)): NAE / NAE | No. of live births ([1]; P0, F1, (F2)): NAE / NAE | No. of ovarian follicles ([1]; P0, F1, (F2)): NAE / NAE | Oestrus cyclicity ([1]; P0, F1, (F2)): NAE / NAE | Offspring: learning & memory ([1]; P0, F1, (F2)): NAE / NAE | Ovary HP ([1]; P0, F1, (F2)): NAE / NAE | Ovary weight ([1]; P0, F1, (F2)): NAE / NAE | Oviduct HP ([1]; P0, F1, (F2)): NAE / NAE | Pituitary HP ([1]; P0, F1, (F2)): NAE / NAE | Pituitary weight ([1]; P0, F1, (F2)): NAE / NAE | Postimplantation loss ([1]; P0, F1, (F2)): NAE / NAE | Presence of anomalies (external, visceral, skeletal) ([1]; P0, F1, (F2)): NAE / NAE | Prostate HP ([1]; P0, F1, (F2)): NAE / NAE | Prostate weight ([1]; P0, F1, (F2)): NAE / NAE | Pup development ([1]; P0, F1, (F2)): NAE / NAE | Reproduction ([1]; P0, F1, (F2)): NAE / NAE | Seminal vesicles HP ([1]; P0, F1, (F2)): NAE / NAE | Seminal vesicles weight ([1]; P0, F1, (F2)): NAE / NAE | Sperm morphology ([1]; P0, F1, (F2)): NAE / NAE | Sperm motility ([1]; P0, F1, (F2)): NAE / NAE | Sperm numbers ([1]; P0, F1, (F2)): NAE / NAE | Testis HP ([1]; P0, F1, (F2)): NAE / NAE | Testis weight ([1]; P0, F1, (F2)): NAE / NAE | Thyroid HP ([1]; P0, F1, (F2)): NAE / NAE | Thyroid stimulating hormone level ([1]; P0, F1, (F2)): NAE / NAE | Thyroid weight ([1]; P0, F1, (F2)): NAE / NAE | Time to mating ([1]; P0, F1, (F2)): NAE / NAE | Triiodothyronine / thyroxine level ([1]; P0, F1, (F2)): NAE / NAE | Uterus HP (with cervix) ([1]; P0, F1, (F2)): NAE / NAE | Uterus weight (with cervix) ([1]; P0, F1, (F2)): NAE / NAE | Vagina HP ([1]; P0, F1, (F2)): NAE / NAE | Vaginal smears ([1]; P0, F1, (F2)): NAE / NAE | Alterations of the parameters addressed in OECD TG 443 ([1]; up to 1000 mg/kg bw/day): no toxicologically relevant alterations | Rank of oestrogen receptor activation among shorter-chained parabens [2]: the least | Overall WoE conclusion on genotoxicity [3]: [d] While methyl paraben exhibited in vitro clastogenicity with metabolic activation in an OECD TG 473 study, absence of in vivo clastogenicity in an OECD TG 478 study is overriding in the WoE evaluation so that the overall WoE conclusion is absence of genotoxicity | NOAEL: No. of foetal deaths; viable foetuses ([4]; TG 414-like, highest dose): 550 mg/kg bw/day | No. of foetal deaths; viable foetuses ([4]; TG 414-like, up to 550 mg/kg bw/day): NAE / NAE | Triiodothyronine / thyroxine level ([4]; dams, TG 414-like, up to 550 mg/kg bw/day): NAE / NAE (dams) | NOAEL, developmental toxicity [4]: NOAEL: 550 (highest dose tested) (similar to OECD 414; conducted 1972) mg/kg body weight/day | NOAEL, developmental toxicity ([4]; listed as methyl paraben): 550 mg/kg body weight/day | Cytogenicity in mammalian cells classification [5]: Clastogenic with metabolic activation (OECD 473; 1987) [d] | NOAEL, reproductive toxicity [6]: NOAEL: 1000 (OECD 422; v 2016) mg/kg body weight/day | NOAEL, reproductive toxicity ([6]; listed as methyl paraben): 1000 mg/kg body weight/day | Treatment-related effects in parental animals or pups ([6]; OECD TG 422): no treatment-related effects | Adrenals HP ([6]; P0, F1): NAE / NAE | Adrenals weight ([6]; P0, F1): NAE / NAE | Brain weight ([6]; P0, F1): NAE / NAE | Coagulating gland HP ([6]; P0, F1): NAE / NAE | Epididymis HP ([6]; P0, F1): NAE / NAE | Epididymis weight ([6]; P0, F1): NAE / NAE | Fertility ([6]; P0, F1): NAE / NAE | Foetal development ([6]; P0, F1): NAE / NAE | Gestation length ([6]; P0, F1): NAE / NAE | Litter size ([6]; P0, F1): NAE / NAE | Litter viability ([6]; P0, F1): NAE / NAE | Liver weight ([6]; P0, F1): NAE / NAE | Mammary gland HP; males ([6]; P0, F1): NAE / NAE | Nipple development ([6]; P0, F1): NAE / NAE | No. of implantations, corpora lutea ([6]; P0, F1): NAE / NAE | No. of live births ([6]; P0, F1): NAE / NAE | Oestrus cyclicity ([6]; P0, F1): NAE / NAE | Ovary HP ([6]; P0, F1): NAE / NAE | Ovary weight ([6]; P0, F1): NAE / NAE | Postimplantation loss ([6]; P0, F1): NAE / NAE | Pre-implantation loss ([6]; P0, F1): NAE / NAE | Presence of anomalies (external, visceral, skeletal) ([6]; P0, F1): NAE / NAE | Prostate HP ([6]; P0, F1): NAE / NAE | Prostate weight ([6]; P0, F1): NAE / NAE | Reproduction ([6]; P0, F1): NAE / NAE | Seminal vesicles HP ([6]; P0, F1): NAE / NAE | Seminal vesicles weight ([6]; P0, F1): NAE / NAE | Testis HP ([6]; P0, F1): NAE / NAE | Testis weight ([6]; P0, F1): NAE / NAE | Thyroid stimulating hormone level ([6]; P0, F1): NAE / NAE | Time to mating ([6]; P0, F1): NAE / NAE | Triiodothyronine / thyroxine level ([6]; P0, F1): NAE / NAE | Uterus HP (with cervix) ([6]; P0, F1): NAE / NAE | Uterus weight (with cervix) ([6]; P0, F1): NAE / NAE | Vagina HP ([6]; P0, F1): NAE / NAE | Vaginal smears ([6]; P0, F1): NAE / NAE | pKa [7]: 8.4
